Data published in patent publication US20070104644A1, “Inhibitor imaging agents” (priority 2003, published 2007).

Assays:
[1] = system: ApoE −/− mice, carotid artery; test: Biodistribution in ApoE ligation model of atherosclerosis (ligated and sham); assay type: in vivo
Description: ApoE −/− mice are transgenic knock-out mice, which lack the ApoE gene, and are therefore unable to regulate their plasma cholesterol levels. As a consequence ApoE mice develop atherosclerotic lesions, a process which is accelerated with feeding of high fat diet. Further acceleration of lesion development can be achieved by ligating the carotid artery, resulting in advanced lesion formation within 4 weeks of surgery and high fat diet feeding.
Two controls have been used for these experiments: (1) ApoE sham animals in which the mice undergo the same surgical intervention but the sture is only passed beneath the carotid and then removed and, (2) C57BL/6 ligtaed animals which undergo the same surgical ligation and high fat feeding as the ApoE ligated mice. Literature reports have stated that these animals do have some level of tissue remodelling, but with lower active MMP levels [Ivan et al, Circulation, 105, 2686-2691 (2002)].

[2] = In vitro rat plasma stability; assay type: in vitro ADME
Method: Plasma and in vivo stability studies were performed with Compound 24A to determine the stability and metabolism of the compound.

[3] = system: Lewis lung carcinoma (LLC) tumour; test: Biodistribution in LLC tumour model in vivo; design: species or system C57BL/6 mice
Method: 1×10^6 Lewis lung carcinoma (LLC) cells are injected subcutaneously into right inner thigh of C57BL/6 mice. Tumours were allowed to grow for 15 days prior to biodistribution being carried out.
Biodistribution studies were performed in the LLC tumour model.
Biodistribution was performed in the LLC tumour model of Example 23 with Compounds 46B and 48B.

[4] = system: MDA-MB-231 tumour (human breast carcinoma xenograft); test: Imaging in MDA-MB-231 tumour model in vivo
Method: Imaging was performed with Compound 24A in the MDA-MB-231 tumour model (a human breast carcinoma xenograft model). […] 1999 May;17(3):231-8; • Lee et al, Eur. J Cancer, 2001; 37:106-113. • Weber et al Int J Oncol.

[5] = In vivo stability and metabolism in the rat
Description: Only plasma and bile samples could be analysed due to insufficient radioactivity within the urine.

[6] = ApoE Ligated, 5 min post injection
[7] = ApoE Ligated, 60 min post injection
[8] = ApoE Sham, 60 min post injection

% ID/G Carotid, mean [1, 6]: 2.67 % ID/G
Carotid/Blood, mean [1, 6]: 0.94
Carotid/Heart, mean [1, 6]: 0.48
Carotid/Lung, mean [1, 6]: 0.62
% ID/G Carotid, mean [1, 7]: 2.00 % ID/G
Carotid/Blood, mean [1, 7]: 1.97
Carotid/Heart, mean [1, 7]: 1.03
Carotid/Lung, mean [1, 7]: 1.71
% ID/G Carotid, mean [1, 8]: 0.25 % ID/G
Carotid/Blood, mean [1, 8]: 0.19
Carotid/Heart, mean [1, 8]: 0.21
Carotid/Lung, mean [1, 8]: 0.17
In vitro rat plasma stability ([2]; 2 hours, 37° C.): good stability
RCP of parent compound ([2]; start of incubation at 37° C.): 93%
RCP of parent compound ([2]; through 2 hours incubation at 37° C.): 80%
Background tissue uptake [3]: low background tissue uptake
Blood clearance / retention [3]: cleared very rapidly from the blood
% ID Urinary (urinary excretion), mean ([3]; 5 min post injection): 7.17 % ID
% ID/g Tumour, mean ([3]; 5 min post injection): 0.6 % ID/g
Tumour/Blood, mean ([3]; 5 min post injection): 0.32
Tumour/Heart, mean ([3]; 5 min post injection): 0.27
Tumour/Lung, mean ([3]; 5 min post injection): 0.22
Tumour/Muscle, mean ([3]; 5 min post injection): 1.19
% ID Urinary (urinary excretion), mean ([3]; 30 min post injection): 6.89 % ID
% ID/g Tumour, mean ([3]; 30 min post injection): 0.56 % ID/g
Tumour/Blood, mean ([3]; 30 min post injection): 0.59
Tumour/Heart, mean ([3]; 30 min post injection): 0.57
Tumour/Lung, mean ([3]; 30 min post injection): 0.39
Tumour/Muscle, mean ([3]; 30 min post injection): 1.6
% ID Urinary (urinary excretion), mean ([3]; 60 min post injection): 5.5 % ID
% ID/g Tumour, mean ([3]; 60 min post injection): 0.48 % ID/g
Tumour/Blood, mean ([3]; 60 min post injection): 0.46
Tumour/Heart, mean ([3]; 60 min post injection): 0.68
Tumour/Lung, mean ([3]; 60 min post injection): 0.37
Tumour/Muscle, mean ([3]; 60 min post injection): 1.41
% ID Urinary (urinary excretion), mean ([3]; 120 min post injection): 7.22 % ID
% ID/g Tumour, mean ([3]; 120 min post injection): 0.6 % ID/g
Tumour/Blood, mean ([3]; 120 min post injection): 0.66
Tumour/Heart, mean ([3]; 120 min post injection): 1.23
Tumour/Lung, mean ([3]; 120 min post injection): 0.85
Tumour/Muscle, mean ([3]; 120 min post injection): 1.87
Metabolites detected in bile samples ([5]; in vivo): 4
Metabolites detected in plasma samples ([5]; in vivo): One metabolite
Free iodide in plasma samples ([5]; in vivo, through time): increasing amount of free iodide
In vivo stability and metabolism ([5]; through time in vivo): slight instability and metabolism
Structure (SMILES): O=C(CCN(C1(C(=O)NO)CCCC1)S(=O)(=O)c1ccc(Oc2ccc(F)cc2)cc1)NCCc1ccc(O)c([123I])c1 [Compound 24A]
Route of excretion [3]: primarily excreted through the hepatobiliary system (HBS)
Tumour uptake and retention [3]: Some retention was seen within tumour tissue
Tumour hotspots on imaging [4]: seen from 5 to 120 minutes post injection
